Patent US8450293B2, “Synthesis and characterization of C8 analogs of c-di-GMP” (Rutgers, The State University of New Jersey, priority 2010, dated 2013)

How the values were obtained:
[1] = NMR / 2D DOSY study of metal-dependent complex formation; format: physicochemical; details: NMR concentrations (26-31 mM)
Source text: Three larger and three smaller resonances clustered near 6 ppm, from the H1′ were observed. Diffusion coefficients (D, m^2/s×10^−1), obtained from a separate 2D DOSY experiment on the same sample, are indicated in parentheses. […] (Zhang et al., J. Am. Chem. Soc. 2006, 128, 7015-7024; Zhao et al., Nucleosides Nucleotides Nucl. Acids 2009, 28, 352-378) Here, all three larger resonances have D=1.5, indicative of octamolecular complexes. The two farthest downfield of the three smaller resonances have D=1.7, indicative of tetramolecular complexes (the octamolecular having been already identified), and the remaining farthest upfield smaller resonance has D=3.5, indicative of a bimolecular structure. At 5° C., all three smaller resonances nearly disappear, leaving primarily the three larger ones. The octamolecular complexes are expected to be preferentially stabilized at lower temperatures. At 55° C., the three larger resonances all decrease, and only the farthest upfield of the smaller resonances increases, confirming it is the bimolecular structure. The higher order complexes are disrupted at higher temperatures, leaving the bimolecular structure dominant.
All NMR spectra were acquired on a Varian VNMRS 500 MHz spectrometer. Samples were 31 mM of 2, 27 mM of 3, 26 mM of […] of 5, and 26 mM of 6, each in 0.30 mL H2O containing 10% D2O. The pH of all samples was adjusted to 6.8, using either HCl or KOH/NaOH/LiOH, as appropriate. Each sample was heated to 75° C. for 10 minutes, then allowed to cool to room temperature before being transferred to the NMR tube. The ^1H and ^13C NMR spectra were referenced to sodium trimethylsilylpropylsulfonate in D2O, and the ^31P NMR spectra were referenced to 10% phosphoric acid in D2O. The 1D ^1H NMR spectra used frequency pre-saturation for water suppression. The DOSY spectra used a pre-saturation pulse for water suppression. The data were collected using a 2.5 second relaxation delay over an 8000 Hz spectral width, with 16 repetitions over 256 increments and a diffusion delay of 0.1 seconds. For the HMBC experiments, the ^1H spectra were acquired with 16 scans, with acquisition time and relaxation delay of 2 s and 1.5 s, respectively. To suppress water, ^1H pre-saturation was applied during the relaxation delay. The ^13C spectra were acquired with 1024 scans, with acquisition time and relaxation delay of 0.5 s and 1 s, respectively. For NOE enhancement and ^1H decoupling, ^1H WALTZ16 decoupling was applied during the entire experiment. ^1H-^13C HMBC 2D spectra were acquired using 2048 (t2) times 100 (t1) complex points with spectral widths of 8000 Hz (t2) and 10000 Hz (t1) and transformed to spectra with 2048 (D1) times 1024 (D2) real points after two times linear prediction in t1. The number of scans per each t1 increment was 128 and the relaxation delay for each scan was 1.5 s. To suppress water, ^1H pre-saturation was applied during the relaxation delay. The DEPT transfer delay for HMBC was chosen as ^2,3JHC=20 Hz (the multi-bond coupling constant) and ^1JHC (the one-bond coupling constant) was set as 140 Hz to suppress cross peaks contributed from the one-bond ^1H-^13C connectivity.

[2] = Solubility in water (noted when preparing NMR samples); format: physicochemical; details: K+ salt sample for NMR; spectra obtained in 1:1 CH3OD:H2O instead
Experimental: Portions of the ^1H NMR spectra of the K^+ salts of 4, 5, and 6 at 25° C. are shown in FIGS. 5B, 5C, and 5D, respectively. […] For 4, 5, and 6, the H1′/amino resonances display nearly identical diffusion constants of 3.7/3.5, 2.4/2.5, and 1.9/2.0, respectively. These resonances become larger at 5° C. and disappear completely at 55° C. In all three cases, ^1H spectra of the Na^+ salts closely resemble those of the K^+ salts.

[3] = similar concentrations; Zhang et al. 2004; cited from earlier work

| complex formed (self-association) ([1]; K+ salt) | complex formed (self-association) ([1]; Na+ salt) | solubility in water [2] | Structure (SMILES) | hypochromic effect in UV melt [3] |
| --- | --- | --- | --- | --- |
| primarily a syn bimolecular structure | primarily a syn bimolecular structure | not soluble in water | CC(=O)c1cccc(-c2nc3c(=O)[nH]c(N)nc3n2[C@@H]2O[C@@H]3COP(=O)(O)OC4C(O)[C@H](n5c(-c6cccc(C(C)=O)c6)nc6c(=O)[nH]c(N)nc65)O[C@@H]4COP(=O)(O)OC3C2O)c1 (stereo partly shown) [compound 6, cyclo-8-(3-acetylphenyl)-guanosinylyl(3′→5′)-8′-(3-acetylphenyl)-guanosinylyl(3′→5′)] |  |
| primarily a syn bimolecular structure | primarily a syn bimolecular structure |  | Nc1nc2c(nc(-c3ccccc3)n2[C@@H]2O[C@@H]3COP(=O)(O)OC4C(O)[C@H](n5c(-c6ccccc6)nc6c(=O)[nH]c(N)nc65)O[C@@H]4COP(=O)(O)OC3C2O)c(=O)[nH]1 (stereo partly shown) [compound 5, cyclo-8-phenylguanosinylyl (3′→5′)-8′-phenylguanosinylyl (3′→5′)] |  |

Further lines, the compound ahead of its results:

| Structure (SMILES) | complex formed (self-association) ([1]; K+ salt) | complex formed (self-association) ([1]; Na+ salt) | solubility in water [2] | hypochromic effect in UV melt [3] |
| --- | --- | --- | --- | --- |
| Nc1nc2c(ncn2[C@@H]2O[C@@H]3COP(=O)(O)OC4[C@@H](COP(=O)(O)O[C@@H]3C2O)O[C@@H](n2cnc3c(=O)[nH]c(N)nc32)[C@H]4O)c(=O)[nH]1 (stereo partly shown) [compound 1, cyclic diguanosine monophosphate] |  |  |  | pronounced hypochromism |
| CSc1nc2c(=O)[nH]c(N)nc2n1[C@@H]1O[C@@H]2COP(=O)(O)OC3C(O)[C@H](n4c(SC)nc5c(=O)[nH]c(N)nc54)O[C@@H]3COP(=O)(O)OC2C1O (stereo partly shown) [compound 4, cyclo-8-methylthioguanosinylyl (3′→5′)-8′-methylthioguanosinylyl (3′→5′)] | primarily a syn bimolecular structure | primarily a syn bimolecular structure |  |  |
| Nc1nc2c(nc(S)n2[C@@H]2O[C@@H]3COP(=O)(O)OC4C(O)[C@H](n5c(=S)[nH]c6c(=O)[nH]c(N)nc65)O[C@@H]4COP(=O)(O)OC3C2O)c(=O)[nH]1 (stereo partly shown) [compound 3, cyclo-8-thioguanosinylyl (3′→5′)-8′-thioguanosinylyl (3′→5′)] | primarily a syn bimolecular structure | primarily a syn bimolecular structure |  |  |
